# From a melting point compilation (Tetko et al.; mined from patent text by program, amines drawn as free bases though some values may be those of a salt)
row,SMILES,melting point
1,O=[N+]([O-])C=C1NCCCN1Cc1ccc(Cl)cc1,172 to 174 °C
2,CN(C)Cc1cc2ccc(C(=O)NN)cc2n1S(C)(=O)=O,170 to 173 °C
3,NC(c1ccc2ccccc2c1)P(O)O (centres undefined),237 to 239 °C
4,CC(C)(C)OC(=O)Nc1ccc(-c2cccc(F)c2)cc1N,125 to 128 °C
5,CN(C)c1ccc(C(=N)Nc2cccc(NC(=O)C=Cc3ccccc3)c2)cc1,225 to 227 °C
6,CNN(NC)C(=O)Sc1cc(C)ccc1C(=O)OC,79.4 to 80 °C
7,COc1cc2c(cc1OC)-c1c(OC)c(OC)cc3ccnc(c13)C2=O,229 to 230 °C
8,CC(=O)OCSc1c(F)cc(-c2c(-c3ccccc3)noc2C)cc1F,130 °C
9,COC(=O)c1ccc2oc(-c3cc(C)ccc3OC(C)C)cc(=O)c2c1,149 to 151 °C
10,O=C(O)COc1ccc(SCc2cc(-c3ccc(C(F)(F)F)cc3)on2)c2c1CCCC2,167 to 170 °C
11,O=C1CCC(C(=O)O)(c2cccc3ccccc23)CC1,174 to 177 °C
12,CCN(CC)c1ccc(C2(c3c(C)n(CC)c4ccccc34)OC(=O)c3ccccc32)c(N(CC)CC)c1 (centres undefined),139 to 140 °C
13,Cc1oc(-c2ccccc2)nc1COc1ccc(CCC2SC(=O)NC2=O)cc1 (centres undefined),146 to 147 °C
14,COC(=S)c1cccc2nc(C)n(Cc3ccc(-c4ccccc4-c4nc(=O)o[nH]4)cc3)c12,231 to 232 °C
15,Cc1ccc(S(=O)(=O)N2CCN(c3ccc(O)cc3)CC2)cc1,193 °C
16,CN1CCC(c2c[nH]c3ccc(-n4ccnc4)cc23)CC1,217 °C
17,O=S(=O)(c1cccs1)N(CC1CC1)c1cccc2cc(-c3ncc(CO)s3)[nH]c12,174 °C
18,CC(C)(C)OC(=O)N1CCN(c2ccc3c(c2)-n2c(nc4ccccc4c2=O)C3=O)CC1,226 to 228 °C
19,CC(C)C(N)C(=O)NC(Cc1ccccc1)C(O)C(O)C(Cc1ccccc1)NC(=O)C(N)C(C)C (centres undefined),205 to 207 °C
20,COc1ccc2c(Cl)ccnc2c1,86 to 88 °C
21,COc1ccc(C2=NNC(N)(C3CCN(Cc4ccccc4)CC3)c3cc(OC)ccc32)cc1 (centres undefined),150 °C
22,CC#CCOc1ccc(S(=O)(=O)N(C)[C@H]2CCC[C@H]2C(=O)NO)cc1,160 to 164 °C
23,O=C(O)C(CC1CCCCC1)c1ccc(OCc2ccc3ccccc3n2)cc1 (centres undefined),148 to 150 °C
24,O=C(O)c1ccc(NC(=O)[C@H](Cc2ccc(-c3ccccc3)cc2)NCP(=O)(O)O)cc1,270 to 274 °C
25,CC(CN1CCOCC1)C(=O)c1ccc(C(C)(C)C)cc1 (centres undefined),71 to 73 °C

# The next lines start with the values.
row,melting point,SMILES
1,155 to 157 °C,O=[N+]([O-])c1ccc(NS(=O)(=O)c2ccccc2)c(Cl)c1
2,104 to 105 °C,c1ccc(-c2ncn(C3CCCCO3)c2-c2ccccc2)cc1 (centres undefined)
3,85 to 86 °C,CC(C)(C)NCC(O)COC(=O)c1ccc(OCc2ccccc2)c(OCc2ccccc2)c1 (centres undefined)
4,154 to 155 °C,CON=C(C)c1ccc(C(=O)Nc2ccc(C(C)(C)C)cc2)cc1
5,155 to 156 °C,Cc1oc(-c2ccccc2)nc1COc1ccc(CON2C(=O)c3ccccc3C2=O)cc1
6,276 to 277 °C,Cc1ccc(-c2cc(O)c3[nH]c(=O)ccc3c2)c(C)n1
7,126 °C,O=C(NCc1ccccc1)c1ccccc1-c1ccccc1CNS(=O)(=O)c1cccc(C(F)(F)F)c1
8,119 to 122 °C,O=C(Nc1ccc(F)cc1F)N(Cc1ccccc1)CC1(c2ccccc2)CCCC1
9,218 °C,CC(=O)Nc1ccc(NC(=O)CCl)c(O)c1
10,125 to 126 °C,OCc1nn(-c2ccc(Cl)cc2)c2c1CCCC2
11,206 to 209 °C,Nc1nc(Cl)nc2c1ncn2C1CCCCC1
12,205 to 206 °C,CC(=O)NN=C(c1ccccc1)c1cc(C(C)(C)C)c(O)c(C(C)(C)C)c1
13,165 to 167 °C,O=S1(=O)NCN(C2CC2)c2c(C(F)(F)F)cccc21
14,118 to 120 °C,CCCCc1nc(CCNC(=O)OC(C)(C)C)c[nH]1
